Columns and labels:
Water solubility (HPLC) = format: physicochemical; details: room temperature, sonicated one hour
Procedure: Aliquots of 50 μM PP1 and FF in DMSO were added to 500 μl to heparinized human blood to a final concentration of 50 μM. Following incubation at 37° C. for the indicated time points, the samples were frozen at −80° C., and later prepared for HPLC-based detection of the compounds. Please note that FF is converted to FA in the presence of human blood. […] Data represent average values with standard deviation (n=3). panel B: Water solubility. FF and PP1, were added to water to a final concentration of 50 mM and sonicated in an ultrasonic bath (Branson 1510 Digital Heated Ultrasonic bath) for one hour at room temperature. The samples were then centrifuged for 10 minutes at 16000×g, and the supernatant filtered through 0.45 μm syringe filter. Water solubilized PP1 and FF were subsequently processed for HPLC analysis (see Methods). Data represent average values with standard deviation (n=3). panel C: Effects of PP compounds on PPAR responsive elements (PPRE). The PPAR transcriptional activity was determined in HepG2 cells by the JsTkpGL3 reporter plasmid, which contains a firefly luciferase gene driven by the PPRE, which consists of three copies of the J site from the apo-AII gene promoter. […] The luciferase activity was detected with Dual-Luciferase reporter assay system (Promega, Madison, Wis.), and the resulting luminescence measured with Synergy 2 microplate reader (BioTek, Winooski, Vt.). […]

[1] = system: U-87MG human glioblastoma cell line; assay: Cell death, trypan blue, U-87MG; details: 5-50 μM, 96 h
Procedure: (§1) The percentage of cell death was calculated at 96-hour time point for all experimental conditions.

[2] = system: GBM12 patient-derived human glioblastoma cells; assay: Cell death, trypan blue, GBM12; details: 5-50 μM, 96 h
Procedure: as §1

[3] = PP1 tissue distribution after oral administration (HPLC); format: in vivo, C57BL/6 mice
Procedure: Panel A: PP1 accumulation in different tissues following oral administration of PP1 (25 mg/kg). C57BL/6 mice were treated daily for 14 days, and the levels of PP1 in the blood, liver, spleen, kidney, heart, brain and in brain tumors, were evaluated by HPLC, as previously described. Data represent average values with standard deviation (n=3). Panel B: Body weight of C57BL/6 mice treated with PP1. Mice were treated with the PP1 at doses ranging from 25 to 75 mg/kg/day administered by oral gavage. Following 7 and 14 days of daily drug administration both control (DMSO-treated) and experimental (PP1-treated) mice were weighted. Data represent average values with standard deviation (at least three mice per group were included). In Panels A and B, tumor free and tumor bearing mice were included for the body weight measurement. Panels C, D and E: Intracranial growth of GL-261-Luc cells. C57 black mice, 6-8 weeks of age were anesthetized with 4% isoflurane and secured in a stereotaxic head frame (Harvard Apparatus, Holliston Mass.). GL-261-luc cells (1×10^5 cells in 2 μl; PerkinElmer Inc.) were injected into the brain parenchyma (coordinates: 3 mm anterior to Bregma; 1.5 mm lateral to Sagital suture; 3 mm down from surface) through a burr hole in the skull using a 10 μl Hamilton syringe. Panel C: Mice with large intracranial tumors were selected using bioluminescence imaging with Xenogen IVIS 200 system. Tumor size is expressed as radiance (photons/s/cm2/sr) and was quantified with the Living Image 4.1 software according to the manufacturer's recommendations (Xenogen). Panels D and E: Pathological evaluation of intracranial tumors and tissues. Following 14 days of drug administration (control: DMSO administered daily by oral gavage; PP1 50 mg/kg administered daily by oral gavage) the animals were euthanized, and the following organs were collected: liver, kidneys, spleen, heart, intact brain and intracranial tumors. The tissues were formalin-fixed, paraffin-embedded, and the resulting thin section were stained with hematoxylin and eosin (H&E) for a routine pathological evaluation.
Detection of PP compounds by high performance liquid chromatography (HPLC) —All HPLC data were obtained from the Agilent 1100 apparatus equipped with a line degasser, binary pump (high pressure mixer), autosampler, column thermostat and Diode Array Detector (DAD) (Agilent Technologies, Santa Clara, Calif.). The analytical column 3 μm, 4.6×150 mm (Octyl Silane C8; YMC America, Inc.), solvent A—50 mM acetic acid in water, and solvent B—acetonitrile, with isocratic flow were used to detect and quantify PP compounds in culture media, in cells, tissues and body fluids. The flow rate was set to 1 ml/min, column temperature was 20° C., and the sample volume was 5 μl. DAD wavelength was set to 285 nm. Sample preparation. Blood, cell culture media, cellular and tissue lysates, were deproteinized by adding 150 μl of acetonitrile to 150 μl of sample, mixed well and centrifuged (15 000 g, 5 min). The lysates were sonicated on ice and centrifuged (15 000 g, 5 min). Finally, 150 μl of the supernatant was mixed with the equal volume of acetonitrile, filtered through 0.22 μm centrifuge filter (Sigma) and analyzed by High Performance Liquid Chromatography (HPLC).
Animal studies—All described procedures involving experimental animals were performed in accordance to the IACUC protocol #3444 at LSUHSC, New Orleans. C57BL/6NHsd mice, 11-12 weeks of age (Envigo), were anesthetized with 4% isoflurane and secured in a stereotaxic head frame (Harvard Apparatus, Holliston Mass.). GL-261-luc cells (1×105) (PerkinElmer Inc.) were suspended in PBS and 2 μl aliquots were injected into the brain parenchyma (coordinates: 3 mm anterior to Bregma; 1.5 mm lateral to Sagital suture; 3 mm down from surface) through a burr hole in the skull using a 10 μl Hamilton syringe. […]

[4] = system: GL-261-luc mouse glioblastoma cell line; assay: Cell death, trypan blue, GL-261; details: 5-50 μM, 96 h
Procedure: as §1

[5] = system: LN-229 human glioblastoma cells; details: in vitro; cited from earlier work

## CN(CCO)C(=O)C(C)(C)Oc1ccc(C(=O)c2ccc(Cl)cc2)cc1 [PP1, 2-[4-(4-chlorobenzoyl)phenoxy]-N-(2-hydroxyethyl)-N,2-dimethylpropanamide]
Water solubility (HPLC)
  water solubility in comparison to FF: much better soluble in water
[1]
  in vitro cytotoxicity: high in vitro cytotoxicity
[2]
  in vitro cytotoxicity: high in vitro cytotoxicity
[3]; C57BL/6, mouse, brain tumor tissue, po, 25 mg/kg, orally administered, mice, read-out: HPLC-measured concentration in the brain tumor tissues
  concentration at 14 days: 5 to 6 µM
[3]; oral gavage daily, 14 days
  accumulation in the liver: 10.3 ± 4.3 µM
  concentration in intracranial tumors: 5.8 ± 0.7 µM
  level in intact brains: 4.9 ± 3.4 µM
  level in the blood: 3.05 ± 0.2 µM
  level in the heart: 6.1 ± 2.4 µM
  level in the spleen: 7.6 ± 3.2 µM
[3]; oral gavage daily, 14 days, in µM
  accumulation in the kidney: 8.8+/−4.7
[4]
  in vitro cytotoxicity: high in vitro cytotoxicity
[5]
  concentration at which highly effective tumor cell death occurs: 10 µM
